Source: patent publication US20200163880A1, “CATIONIC LIPOSOMES” (DANMARKS TEKNISKE UNIVERSITET, priority 2017, published 2020)
Entries after “also recorded” stand apart in the source; their conditions may differ.

Columns and labels:
[1] = test system: whole blood from healthy human donors; assay: Cytokine secretion in ex vivo human whole blood (ELISA, 24 h); assay type: cell-based; conditions: 24 h incubation
Procedure: Induction of cytokines from whole blood after treatment and incubation for 24 h. For all figures statistical analyses was made using students T-test, *p<0.05, **p<0.01, ***p<0.005, n=8-10. Test samples were the free TLR7 agonist 1v270 (1v270), the PEGylated cationic formulation with the immune stimulating 1v270 TLR7 agonist (Cationic PEG 1v270 Lip), a non-targeting neutral PEGylated liposome with 1v270 TLR7 agonist (Neutral PEG 1v270 Lip) and a non-PEGylated cationic formulation with 1v270 (Cationic 1v270 Lip). Composition and properties can be seen in Table 1. RPMI is control sample only with addition of media and DMSO is a vehicle control as solvent for 1v270.
For targeting a liposome to monocytes and antigen presenting cells (APCs) for use in cancer immunotherapy, it is key to boost an appropriate immune response. To analyze this we examined the ability of TLR7 agonist containing liposomes to induce cytokine secretion after targeting as shown in FIG. 2 and example 4, after another 24 h incubation. […]
To determine the optimal content of 1v270 in cationic PEGylated liposomes, liposomes were prepared with 0, 1, 2.5, 5 and 7.5% 1v270 content. […] The liposomes were incubated as described in example 5 and cytokine secretion of anti-tumor cytokines IL-12p70 and IFNα was measured.

Balb c mice = test system: Balb c mice
Procedure: Balb c mice were injected intravenously with 200 nmol/mouse of the free 1v270 compound, the Cationic PEG 1v270 Lip formulation and the Cationic 1v270 Lip formulation. […] The AUC values calculated for each cytokine were used to determine I) the Toxicity Prediction with the IL-6/IFNα and IL-6/IL-12p70 ratios, and J) the immunogenicity score by the IFNα/IL-10 and IL-12p70/IL-10 ratios shown in arbitrary units. (n=5 mice/group, Students T-test was used, *p<0.05, **p<0.01, *** p<0.005, ns=non significant, error bars show SE).

Compound: CCCCCCCC/C=C\CCCCCCCC(=O)OCC(COP(=O)(O)OCCNC(=O)c1ccc(Cn2c(=O)[nH]c3c(N)nc(OCCOC)nc32)cc1)OC(=O)CCCCCCC/C=C\CCCCCCCC (stereo not shown) [1v270, 2-(4-((6-amino-2-(2-methoxyethoxy)-8-oxo-7H-purin-9(8H)-yl)methyl)benzamido)ethyl 2,3-bis(oleoyloxy)propyl phosphate]
- secretion of IL-6 ([1]; FIG. 3C): highest; also recorded: most potent
- secretion of IL-10 ([1]; FIG. 3D): significantly higher levels
- higher toxicity prediction than the cationic PEG 1v270 Lip (Balb c mice; AUC ratios, FIG. 4I, ratio not given): 8 fold
- induction of IFNα in mouse plasma (Balb c mice; iv, 200 nmol/mouse, 2, 6 and 24 h): unable to induce IFNα at all; also recorded: no IFNα was measured
